Results reported in ChEMBL document CHEMBL3352089 (J Med Chem, 2014).

What was measured:
Assay type in all cases: cell-based
Conditions in all cases: read-out: Activity
[1] = Cytotoxicity against human HepG2 cells assessed as cell viability at 1 uM after 24 hrs by Cell-Titer Glo assay
[2] = Cytotoxicity against human HepG2 cells assessed as cell viability at 10 uM after 24 hrs by Cell-Titer Glo assay
[3] = Cytotoxicity against human HepG2 cells assessed as cell viability at 1 uM after 4 hrs by Cell-Titer Glo assay
[4] = Cytotoxicity against human HepG2 cells assessed as cell viability at 10 uM after 4 hrs by Cell-Titer Glo assay
[5] = Cytotoxicity against human HepG2 cells assessed as cell viability at 100 uM after 4 hrs by Cell-Titer Glo assay
[6] = Cytotoxicity against human HepG2 cells assessed as cell viability at 100 uM after 24 hrs by Cell-Titer Glo assay

Nc1ncc(-c2cccc(N3CCNCC3)c2)cc1-c1ccnc2ccccc12
> 75%: viability at 24 h, 1 µM [1] | viability at 24 h, 10 µM [2] | viability at 4 h, 1 µM [3] | viability at 4 h, 10 µM [4]

COc1cc(-c2cnc(N)c(-c3cc(OC)c(OC)c(OC)c3)c2)ccc1O
> 75%: viability at 24 h, 1 µM [1] | viability at 24 h, 10 µM [2] | viability at 4 h, 100 µM [5] | viability at 4 h, 1 µM [3] | viability at 24 h, 100 µM [6] | viability at 4 h, 10 µM [4]

COc1ccc(-c2cc(-c3ccc(N4CCNCC4)cc3)cnc2N)cc1
> 75%: viability at 24 h, 1 µM [1] | viability at 24 h, 10 µM [2] | viability at 4 h, 1 µM [3] | viability at 4 h, 10 µM [4]

Nc1ncc(-c2ccc(N3CCNCC3)cc2)cc1-c1ccc2c(c1)OCCO2
> 75%: viability at 24 h, 1 µM [1] | viability at 24 h, 10 µM [2] | viability at 4 h, 100 µM [5] | viability at 4 h, 1 µM [3] | viability at 4 h, 10 µM [4]

COc1cc(-c2cnn3cc(-c4ccc(N5CCNCC5)cc4)cnc23)cc(OC)c1OC
> 75%: viability at 24 h, 1 µM [1] | viability at 4 h, 1 µM [3] | viability at 4 h, 10 µM [4]

CNC(=O)c1cc(Oc2ccc(NC(=O)Nc3ccc(Cl)c(C(F)(F)F)c3)cc2)ccn1 [SORAFENIB]
> 75%: viability at 24 h, 1 µM [1] | viability at 24 h, 10 µM [2] | viability at 4 h, 100 µM [5] | viability at 4 h, 1 µM [3] | viability at 4 h, 10 µM [4]

COc1cc(-c2cc(-c3ccc(N4CCNCC4)cc3)cnc2N(C)C)cc(OC)c1OC
> 75%: viability at 24 h, 1 µM [1] | viability at 24 h, 10 µM [2] | viability at 4 h, 100 µM [5] | viability at 4 h, 1 µM [3] | viability at 4 h, 10 µM [4]

COc1cc(-c2cc(-c3ccc(N4CCNCC4)cc3)cnc2N)ccc1C
> 75%: viability at 24 h, 1 µM [1] | viability at 24 h, 10 µM [2] | viability at 4 h, 1 µM [3] | viability at 4 h, 10 µM [4]

COc1cc(-c2cc(-c3cccc(N4CCNCC4)c3)cnc2N)cc(OC)c1OC
> 75%: viability at 24 h, 1 µM [1] | viability at 24 h, 10 µM [2] | viability at 4 h, 100 µM [5] | viability at 4 h, 1 µM [3] | viability at 4 h, 10 µM [4]

Cc1ccc(Nc2nccc(N(C)c3ccc4c(C)n(C)nc4c3)n2)cc1S(N)(=O)=O [PAZOPANIB]
> 75%: viability at 24 h, 1 µM [1] | viability at 24 h, 10 µM [2] | viability at 4 h, 100 µM [5] | viability at 4 h, 1 µM [3] | viability at 24 h, 100 µM [6] | viability at 4 h, 10 µM [4]

CC(C)Oc1cccc(-c2cc(-c3ccc(N4CCNCC4)cc3)cnc2N)c1
> 75%: viability at 24 h, 1 µM [1] | viability at 24 h, 10 µM [2] | viability at 4 h, 1 µM [3] | viability at 4 h, 10 µM [4]

CS(=O)(=O)CCNCc1ccc(-c2ccc3ncnc(Nc4ccc(OCc5cccc(F)c5)c(Cl)c4)c3c2)o1 [LAPATINIB]
> 75%: viability at 24 h, 1 µM [1] | viability at 24 h, 10 µM [2] | viability at 4 h, 100 µM [5] | viability at 4 h, 1 µM [3] | viability at 24 h, 100 µM [6] | viability at 4 h, 10 µM [4]

Cc1cn(-c2cc(NC(=O)c3ccc(C)c(Nc4nccc(-c5cccnc5)n4)c3)cc(C(F)(F)F)c2)cn1 [NILOTINIB]
> 75%: viability at 24 h, 1 µM [1] | viability at 24 h, 10 µM [2] | viability at 4 h, 100 µM [5] | viability at 4 h, 1 µM [3] | viability at 24 h, 100 µM [6] | viability at 4 h, 10 µM [4]

C#Cc1cccc(Nc2ncnc3cc(OCCOC)c(OCCOC)cc23)c1 [ERLOTINIB]
> 75%: viability at 24 h, 1 µM [1] | viability at 24 h, 10 µM [2] | viability at 4 h, 100 µM [5] | viability at 4 h, 1 µM [3] | viability at 24 h, 100 µM [6] | viability at 4 h, 10 µM [4]

COc1cc2ncnc(Nc3ccc(F)c(Cl)c3)c2cc1OCCCN1CCOCC1 [GEFITINIB]
> 75%: viability at 24 h, 1 µM [1] | viability at 24 h, 10 µM [2] | viability at 4 h, 100 µM [5] | viability at 4 h, 1 µM [3] | viability at 24 h, 100 µM [6] | viability at 4 h, 10 µM [4]

Nc1ncc(-c2ccc(N3CCNCC3)cc2)cc1-c1cccc2ncccc12
> 75%: viability at 24 h, 1 µM [1] | viability at 24 h, 10 µM [2] | viability at 4 h, 100 µM [5] | viability at 4 h, 1 µM [3] | viability at 4 h, 10 µM [4]

c1cc(-c2cnn3cc(-c4ccc(N5CCNCC5)cc4)cnc23)c2cccnc2c1
> 75%: viability at 24 h, 1 µM [1] | viability at 24 h, 10 µM [2] | viability at 4 h, 100 µM [5] | viability at 4 h, 1 µM [3] | viability at 4 h, 10 µM [4]

COc1cccc(-c2cc(-c3ccc(N4CCNCC4)cc3)cnc2N)c1
> 75%: viability at 24 h, 1 µM [1] | viability at 24 h, 10 µM [2] | viability at 4 h, 100 µM [5] | viability at 4 h, 1 µM [3] | viability at 4 h, 10 µM [4]
